For 32 molecules, IC50 results are on record in patent US20230210853A1 (Halia Therapeutics, Inc., priority 2020, published 2023).

Where only a bound is given, the exact number is not on record here.

The first test deals with T1, full-length recombinant human NEK7 (Homo sapiens, UniProt Q8TDX7).
T1 construct: full-length recombinant human NEK7; GST (N); purchased SignalChem N09-10G; host or cells: Sf9 insect cells (baculovirus)
T1 sequence (Q8TDX7 whole entry): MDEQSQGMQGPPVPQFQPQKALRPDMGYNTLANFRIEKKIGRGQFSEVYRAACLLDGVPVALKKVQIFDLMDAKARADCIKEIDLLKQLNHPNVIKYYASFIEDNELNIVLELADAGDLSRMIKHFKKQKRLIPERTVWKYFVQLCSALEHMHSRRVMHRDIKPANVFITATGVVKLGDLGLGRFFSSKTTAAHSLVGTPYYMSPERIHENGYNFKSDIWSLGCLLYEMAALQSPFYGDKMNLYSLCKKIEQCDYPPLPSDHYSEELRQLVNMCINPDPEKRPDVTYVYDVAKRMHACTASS
Kind of test: NEK7 enzymatic assay ([33P]-ATP, casein substrate). The test is classed as biochemical. Particulars: Table 2a; recombinant human NEK7, casein substrate. The method, boiled down:
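GST-tagged enzyme, baculovirus-expressed in Sf9 cells, was mixed with casein in 20 mM Hepes pH 7.5, 10 mM MgCl2, 1 mM EGTA, 0.02% Brij35, 2 mM DTT, 1% DMSO. Compounds (3-fold series, 10 μM–0.5 nM) were preincubated 20 min at RT, then [33P]-ATP was added for 2 h at RT. P81 filter-bound radioactivity was expressed as % of vehicle activity and fitted to IC50.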
For orientation: IC50 means the concentration at which inhibition is half-maximal. With `CCc1cc(NC(=O)Nc2ccc(-c3nn(C4CC4)c4ncnc(N)c34)cc2F)on1` [Ia-42, 1-(4-(4-amino-1-cyclopropyl-1H-pyrazolo[3,4-d]pyrimidin-3-yl)-2-fluorophenyl)-3-(3-ethylisoxazol-5-yl)urea], the IC50 was less than 150 nM.
Take `CC(C)(C)c1cc(NC(=O)Nc2ccc(-c3nn(-c4ccncc4)c4ncnc(N)c34)cc2F)on1` [Ia-17, 1-(4-(4-amino-1-(pyridin-4-yl)-1H-pyrazolo[3,4-d]pyrimidin-3-yl)-2-fluorophenyl)-3-(3-(tert-butyl)isoxazol-5-yl)urea]: the IC50 lay in the range of 301 to 500 nM.
In the case of `CC(C)(C)c1cc(NC(=O)Nc2ccc(-c3nn(C4COC4)c4ncnc(N)c34)cc2F)no1` [Ia-23, 1-(4-(4-amino-1-(oxetan-3-yl)-1H-pyrazolo[3,4-d]pyrimidin-3-yl)-2-fluorophenyl)-3-(5-(tert-butyl)isoxazol-3-yl)urea], the IC50 is less than 150 nM.
As for `CC1(c2cc(NC(=O)Nc3ccc(-c4nn(C5CC5)c5ncnc(N)c45)cc3F)on2)CCC1` [Ia-44, 1-(4-(4-amino-1-cyclopropyl-1H-pyrazolo[3,4-d]pyrimidin-3-yl)-2-fluorophenyl)-3-(3-(1-methylcyclobutyl)isoxazol-5-yl)urea], the IC50 lay within 151 to 300 nM.
`Cn1nc(-c2ccc(NC(=O)Nc3cc(C(C)(C)C)no3)c(F)c2)c2c(N)ncnc21` [Ia-29, 1-(4-(4-amino-1-methyl-1H-pyrazolo[3,4-d]pyrimidin-3-yl)-2-fluorophenyl)-3-(3-(tert-butyl)isoxazol-5-yl)urea]: the half-inhibitory concentration (IC50) was less than 150 nM.
On the same count and under the same terms, for `CC(C)n1nc(-c2ccc(NC(=O)Nc3cc(C(C)(C)C)no3)c(Cl)c2)c2c(N)ncnc21` [Ia-6] the value was 501 to 1500 nM; for `Cc1cc(-c2nn(C3CC3)c3ncnc(N)c23)ccc1NC(=O)Nc1cc(C2(C(F)(F)F)CC2)no1` [Ia-48, 1-(4-(4-amino-1-cyclopropyl-1H-pyrazolo[3,4-d]pyrimidin-3-yl)-2-methylphenyl)-3-(3-(1-(trifluoromethyl)cyclopropyl)isoxazol-5-yl)urea], 301 to 500 nM.
As for `CCC(CC)c1cc(NC(=O)Nc2ccc(-c3nn(C4CC4)c4ncnc(N)c34)cc2F)on1` [Ia-40, 1-(4-(4-amino-1-cyclopropyl-1H-pyrazolo[3,4-d]pyrimidin-3-yl)-2-fluorophenyl)-3-(3-(pentan-3-yl)isoxazol-5-yl)urea], the half-maximal inhibitory concentration (IC50) was in the range of 151 to 300 nM.
In the case of `CC(C)(C)c1cc(NC(=O)Nc2ccc(-c3nn(C4CCC4)c4ncnc(N)c34)cc2)on1` [Ia-7, 1-(4-(4-amino-1-cyclobutyl-1H-pyrazolo[3,4-d]pyrimidin-3-yl)phenyl)-3-(3-(tert-butyl)isoxazol-5-yl)urea], the 50% inhibitory concentration (IC50) fell in the range of 151 to 300 nM.

The test is the same for the next values; noted with them: Table 2b; recombinant human NEK7, casein substrate.
As for `CC(C)(C)c1cc(NC(=O)Nc2ccc(Oc3ncnc4[nH]ccc34)cc2F)n(-c2ccccc2)n1` [Ib-3, 1-(4-((7H-pyrrolo[2,3-d]pyrimidin-4-yl)oxy)-2-fluorophenyl)-3-(3-(tert-butyl)-1-phenyl-1H-pyrazol-5-yl)urea], the IC50 was greater than 1500 nM.
As for `CC(C)(C)c1cc(NC(=O)Cc2ccc(Oc3ccnc4[nH]cc(Cl)c34)cc2F)n(-c2ccccc2)n1` [Ib-22, N-(3-(tert-butyl)-1-phenyl-1H-pyrazol-5-yl)-2-(4-((3-chloro-1H-pyrrolo[2,3-b]pyridin-4-yl)oxy)-2-fluorophenyl)acetamide], the IC50 was greater than 1500 nM.

Still in this test, the particulars now being: Table 2e; recombinant human NEK7, casein substrate.
With `O=C(Nc1ccc(CN2CCN(CCO)CC2)c(C(F)(F)F)c1)Nc1ccc(Oc2ccnc3[nH]cc(Cl)c23)cc1F` [Ie-41, 1-(4-((3-chloro-1H-pyrrolo[2,3-b]pyridin-4-yl)oxy)-2-fluorophenyl)-3-(4-((4-(2-hydroxyethyl)piperazin-1-yl)methyl)-3-(trifluoromethyl)phenyl)urea], the IC50 is greater than 1500 nM.
Same read-out and setting: for `O=C(Nc1ccc(CN2CCOCC2)c(C(F)(F)F)c1)Nc1ccc(Oc2ccnc3[nH]cc(Cl)c23)cc1F` [Ie-4, 1-(4-((3-Chloro-1H-pyrrolo[2,3-b]pyridin-4-yl)oxy)-2-fluorophenyl)-3-(4-(morpholinomethyl)-3-(trifluoromethyl)phenyl)UR EA] the value was greater than 1500 nM; for `CN(C)Cc1ccc(NC(=O)Nc2ccc(Oc3ccnc4[nH]cc(Cl)c34)cc2F)cc1C(F)(F)F` [Ie-7, 1-(4-((3-chloro-1H-pyrrolo[2,3-b]pyridin-4-yl)oxy)-2-fluorophenyl)-3-(4-((dimethylamino)methyl)-3-(trifluoromethyl)phenyl)urea], greater than 1500 nM.
Take `O=C(Nc1ccc(CN2CC(F)(F)C2)c(C(F)(F)F)c1)Nc1ccc(Oc2ccnc3[nH]cc(Cl)c23)cc1F` [Ie-32, 1-(4-((3-chloro-1H-pyrrolo[2,3-b]pyridin-4-yl)oxy)-2-fluorophenyl)-3-(4-((3,3-difluoroazetidin-1-yl)methyl)-3-(trifluoromethyl)phenyl)urea]: the IC50 was greater than 1500 nM.
Regarding `CC(c1ccc(NC(=O)Nc2ccc(Oc3ccnc4[nH]cc(Cl)c34)cc2F)cc1C(F)(F)F)N1CCN(C)CC1` (centres unmarked) [Ie-13, 1-(4-((3-chloro-1H-pyrrolo[2,3-b]pyridin-4-yl)oxy)-2-fluorophenyl)-3-(4-(1-(4-methylpiperazin-1-yl)ethyl)-3-(trifluoromethyl)phenyl)urea], the IC50 was in the range of 501 to 1500 nM.
Still for that read-out and setting: the result for `CN1CCN(Cc2ccc(NC(=O)Nc3ccc(Oc4ccnc5[nH]cc(Cl)c45)cc3F)cc2C(F)F)CC1` [Ie-22, 1-(4-((3-chloro-1H-pyrrolo[2,3-b]pyridin-4-yl)oxy)-2-fluorophenyl)-3-(3-(difluoromethyl)-4-((4-methylpiperazin-1-yl)methyl)phenyl)urea] reads 501 to 1500 nM.

The same test, now with this note: Table 2d; recombinant human NEK7, casein substrate.
As for `CCN1CCN(Cc2ccc(NC(=O)Nc3ccc(-c4cn(C5CC5)c5ncnc(N)c45)cc3F)cc2C(F)F)CC1` [Id-59], the IC50 was greater than 1500 nM.
On to `CN1CCN(Cc2ccc(NC(=O)Nc3ccc(-c4nn(C5CC5)c5ncnc(N)c45)cn3)cc2C(F)(F)F)CC1` [Id-29, 1-(5-(4-amino-1-cyclopropyl-1H-pyrazolo[3,4-d]pyrimidin-3-yl)pyridin-2-yl)-3-(4-((4-methylpiperazin-1-yl)methyl)-3-(trifluoromethyl)phenyl)urea], for which the 50% inhibitory concentration (IC50) lay within 151 to 300 nM.
As for `Nc1ncnc2c1c(-c1ccc(NC(=O)Nc3ccc(CN4CCOCC4)c(F)c3)c(F)c1)nn2C1CC1` [Id-47, 1-(4-(4-amino-1-cyclopropyl-1H-pyrazolo[3,4-d]pyrimidin-3-yl)-2-fluorophenyl)-3-(3-fluoro-4-(morpholinomethyl)phenyl)urea], the IC50 is greater than 1500 nM.
Same read-out and setting: for `CN1CCCN(Cc2ccc(NC(=O)Nc3ccc(-c4cn(C5CC5)c5ncnc(N)c45)cc3F)cc2C(F)(F)F)CC1` [Id-43, 1-(4-(4-amino-7-cyclopropyl-7H-pyrrolo[2,3-d]pyrimidin-5-yl)-2-fluorophenyl)-3-(4-((4-methyl-1,4-diazepan-1-yl)methyl)-3-(trifluoromethyl)phenyl)urea] the value was less than 150 nM.
Same read-out and setting: the result for `COc1cc(NC(=O)Nc2ccc(-c3cn(C4CC4)c4ncnc(N)c34)cc2F)ccc1CN1CCN(C)CC1` [Id-37, 1-(4-(4-amino-7-cyclopropyl-7H-pyrrolo[2,3-d]pyrimidin-5-yl)-2-fluorophenyl)-3-(3-methoxy-4-((4-methylpiperazin-1-yl)methyl)phenyl)urea] reads greater than 1500 nM; that for `CN1CCN(Cc2ccc(NC(=O)Nc3ccc(-c4cn(C5CC5)c5ncnc(N)c45)cc3F)c(F)c2)CC1` [Id-64], 501 to 1500 nM.
For the molecule `COc1cc(CN2CCN(C)CC2)ccc1NC(=O)Nc1ccc(-c2cn(C3CC3)c3ncnc(N)c23)cc1F` [Id-52, 1-(4-(4-amino-7-cyclopropyl-7H-pyrrolo[2,3-d]pyrimidin-5-yl)-2-fluorophenyl)-3-(2-methoxy-4-((4-methylpiperazin-1-yl)methyl)phenyl)urea], the half-inhibitory concentration (IC50) was greater than 1500 nM.
The same measure, in the same setting: for `CN1CCC(Oc2ccc(NC(=O)Nc3ccc(-c4cn(C5CC5)c5ncnc(N)c45)cc3F)cc2C(F)(F)F)CC1` [Id-46, 1-(4-(4-amino-7-cyclopropyl-7H-pyrrolo[2,3-d]pyrimidin-5-yl)-2-fluorophenyl)-3-(4-((1-methylpiperidin-4-yl)oxy)-3-(trifluoromethyl)phenyl)urea] the value was less than 150 nM; for `CN1CCN(Cc2ncc(NC(=O)Nc3ccc(-c4cn(C5CC5)c5ncnc(N)c45)cc3F)cc2C(F)(F)F)CC1` [Id-67], less than 150 nM.
Take `CN1CCN(Cc2ccc(NC(=O)Nc3ncc(-c4cn(C5CC5)c5ncnc(N)c45)cc3F)cc2C(F)(F)F)CC1` [Id-66]: the IC50 is less than 150 nM.
On the same count and under the same terms, for `CN(C)C1CCN(Cc2ccc(NC(=O)Nc3ccc(-c4cn(C5CC5)c5ncnc(N)c45)cc3F)cc2C(F)(F)F)CC1` [Id-68] the value was less than 150 nM; for `CN1CCC(Oc2ncc(NC(=O)Nc3ccc(-c4cn(C5CC5)c5ncnc(N)c45)cc3F)cc2C(F)(F)F)CC1` [Id-60], greater than 1500 nM.

The test is the same for the next values; noted with them: comparative compounds of Structure (II).
Regarding `Cc1ccc(CC(=O)N2CCc3c2ccc(-c2nn(C(C)C)c4ncnc(N)c24)c3F)cc1C(F)(F)F` [II-5, 1-(5-(4-amino01-isopropyl-1H-pyrazolo[3,4-d]pyrimidin-3-yl)-4-fluoroindolin-1-yl)-2-(4-methyl-3-(trifluoromethyl)phenyl)ethan-1-one], the IC50 fell in the range of 301 to 500 nM.
On to `CC(C)n1nc(-c2ccc3c(c2Cl)CCN3C(=O)Cc2ccc(F)c(C(F)(F)F)c2)c2c(N)ncnc21` [II-8, 1-(5-(4-amino-1-isopropyl-1H-pyrazolo[3,4-d]pyrimidin-3-yl)-4-chloroindolin-1-yl)-2-(4-fluoro-3-(trifluoromethyl)phenyl)ethan-1-one], for which the IC50 is 501 to 1500 nM.
For `Nc1ncnc2c1c(-c1ccc3c(c1Cl)CCN3C(=O)Cc1ccc(F)c(C(F)(F)F)c1)nn2C1COC1` [II-10, 1-(5-(4-amino-1-(oxetan-3-yl)-1H-pyrazolo[3,4-d]pyrimidin-3-yl)-4-chloroindolin-1-yl)-2-(4-fluoro-3-(trifluoromethyl)phenyl)ethan-1-one], the IC50 was 151 to 300 nM.
